The structures appear in SMILES notation.

Test in all cases: KINOMEscan
Common to all, as to assay type: binding
Common to all, as to settings: read-out: % control activity remaining

For experiment [1], the target named is T1, CAMK2D (Homo sapiens, UniProt Q13557).
T1 construct: purchased Eurofins DiscoverX KINOMEscan

The target in experiment [2] is T2, GRK1 (Homo sapiens, UniProt Q15835).
T2 construct: purchased Eurofins DiscoverX KINOMEscan
T2 sequence (Q15835 1-563): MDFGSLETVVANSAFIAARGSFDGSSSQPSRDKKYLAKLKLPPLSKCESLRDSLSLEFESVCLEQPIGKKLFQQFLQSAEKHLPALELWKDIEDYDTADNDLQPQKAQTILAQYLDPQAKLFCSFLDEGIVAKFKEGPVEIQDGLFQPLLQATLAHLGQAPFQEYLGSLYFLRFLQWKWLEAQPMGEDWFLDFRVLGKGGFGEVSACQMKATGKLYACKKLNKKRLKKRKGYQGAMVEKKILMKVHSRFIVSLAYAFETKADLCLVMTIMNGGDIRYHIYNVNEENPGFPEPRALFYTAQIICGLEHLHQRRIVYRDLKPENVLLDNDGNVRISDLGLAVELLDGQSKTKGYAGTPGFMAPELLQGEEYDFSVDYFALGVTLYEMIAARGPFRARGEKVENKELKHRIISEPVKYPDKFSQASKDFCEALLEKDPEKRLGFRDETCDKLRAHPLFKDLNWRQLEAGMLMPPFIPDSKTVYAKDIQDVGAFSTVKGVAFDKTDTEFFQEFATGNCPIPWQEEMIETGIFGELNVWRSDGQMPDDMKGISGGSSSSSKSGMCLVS

For experiment [3], the target named is T3, KIT(D816H) (Homo sapiens, UniProt P10721, D816H).
T3 construct: purchased Eurofins DiscoverX KINOMEscan

Experiment [4] addresses T4, PHKG1 (Homo sapiens, UniProt Q16816).
T4 construct: purchased Eurofins DiscoverX KINOMEscan

For experiment [5], the target named is T5, PIP5K2B (Homo sapiens, UniProt P78356).
T5 construct: purchased Eurofins DiscoverX KINOMEscan
T5 sequence (P78356 1-416): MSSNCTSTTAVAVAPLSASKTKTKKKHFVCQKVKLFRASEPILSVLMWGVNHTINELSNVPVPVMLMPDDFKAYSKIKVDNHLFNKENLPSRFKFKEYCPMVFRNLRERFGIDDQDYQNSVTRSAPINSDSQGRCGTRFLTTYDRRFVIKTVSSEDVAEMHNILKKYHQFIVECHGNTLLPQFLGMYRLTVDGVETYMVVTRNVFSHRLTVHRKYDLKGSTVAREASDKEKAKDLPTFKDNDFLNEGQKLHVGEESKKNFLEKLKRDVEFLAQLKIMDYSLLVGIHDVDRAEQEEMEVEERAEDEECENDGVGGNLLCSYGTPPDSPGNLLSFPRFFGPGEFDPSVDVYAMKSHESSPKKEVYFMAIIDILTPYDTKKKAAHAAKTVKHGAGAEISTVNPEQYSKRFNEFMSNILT

For experiment [6], the target named is T6, SLK (Homo sapiens, UniProt Q9H2G2).
T6 construct: purchased Eurofins DiscoverX KINOMEscan

Experiment [7] concerns the target T7, TAOK2 (Homo sapiens, UniProt Q9UL54).
T7 construct: purchased Eurofins DiscoverX KINOMEscan
T7 sequence (Q9UL54 1-1235): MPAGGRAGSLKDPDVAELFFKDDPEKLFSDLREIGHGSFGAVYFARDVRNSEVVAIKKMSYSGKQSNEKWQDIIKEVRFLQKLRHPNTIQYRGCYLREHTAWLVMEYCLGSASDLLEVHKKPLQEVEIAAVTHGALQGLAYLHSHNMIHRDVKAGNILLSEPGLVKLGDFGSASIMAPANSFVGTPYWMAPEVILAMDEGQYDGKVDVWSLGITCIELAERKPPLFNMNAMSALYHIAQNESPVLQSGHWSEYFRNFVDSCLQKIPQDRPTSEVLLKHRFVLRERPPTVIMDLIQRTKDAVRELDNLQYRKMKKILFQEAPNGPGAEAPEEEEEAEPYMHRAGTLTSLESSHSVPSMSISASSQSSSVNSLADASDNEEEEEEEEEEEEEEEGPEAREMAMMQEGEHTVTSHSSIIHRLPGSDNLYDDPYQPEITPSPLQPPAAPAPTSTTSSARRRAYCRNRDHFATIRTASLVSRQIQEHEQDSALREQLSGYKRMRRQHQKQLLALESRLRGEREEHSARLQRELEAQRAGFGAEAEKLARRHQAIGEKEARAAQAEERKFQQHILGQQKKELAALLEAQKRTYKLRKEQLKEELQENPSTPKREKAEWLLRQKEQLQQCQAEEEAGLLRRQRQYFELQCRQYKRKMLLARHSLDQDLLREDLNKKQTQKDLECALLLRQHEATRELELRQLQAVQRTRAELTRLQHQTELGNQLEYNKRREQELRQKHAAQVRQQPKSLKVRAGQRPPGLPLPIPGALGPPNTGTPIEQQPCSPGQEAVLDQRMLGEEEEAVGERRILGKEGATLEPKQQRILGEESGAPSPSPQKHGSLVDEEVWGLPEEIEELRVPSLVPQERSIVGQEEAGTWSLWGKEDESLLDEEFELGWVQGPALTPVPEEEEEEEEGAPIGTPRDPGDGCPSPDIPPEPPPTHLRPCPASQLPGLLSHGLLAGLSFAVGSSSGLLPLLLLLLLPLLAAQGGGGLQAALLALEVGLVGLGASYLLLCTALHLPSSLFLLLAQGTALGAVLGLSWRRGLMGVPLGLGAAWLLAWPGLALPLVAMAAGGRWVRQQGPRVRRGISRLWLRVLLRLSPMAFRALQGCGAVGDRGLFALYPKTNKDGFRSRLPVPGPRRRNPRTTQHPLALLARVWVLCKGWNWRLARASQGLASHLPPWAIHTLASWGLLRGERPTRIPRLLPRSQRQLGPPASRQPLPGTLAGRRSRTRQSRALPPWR

Experiment [8] deals with T8, TGFBR1 (Homo sapiens, UniProt P36897).
T8 construct: purchased Eurofins DiscoverX KINOMEscan
T8 sequence (P36897 34-503): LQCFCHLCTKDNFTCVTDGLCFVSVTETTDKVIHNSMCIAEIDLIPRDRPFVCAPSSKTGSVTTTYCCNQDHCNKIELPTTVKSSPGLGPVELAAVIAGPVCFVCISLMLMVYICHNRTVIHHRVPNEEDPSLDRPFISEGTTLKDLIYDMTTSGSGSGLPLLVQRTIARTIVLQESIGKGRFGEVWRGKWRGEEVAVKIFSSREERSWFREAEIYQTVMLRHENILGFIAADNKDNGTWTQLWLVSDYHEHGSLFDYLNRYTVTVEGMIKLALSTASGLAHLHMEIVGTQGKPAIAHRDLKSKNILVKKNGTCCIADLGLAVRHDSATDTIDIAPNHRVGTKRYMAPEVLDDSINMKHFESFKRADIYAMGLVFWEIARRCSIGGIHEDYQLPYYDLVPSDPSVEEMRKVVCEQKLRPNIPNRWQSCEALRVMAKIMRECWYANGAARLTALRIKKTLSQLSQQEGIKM

T3 sequence (P10721 26-976 D816H): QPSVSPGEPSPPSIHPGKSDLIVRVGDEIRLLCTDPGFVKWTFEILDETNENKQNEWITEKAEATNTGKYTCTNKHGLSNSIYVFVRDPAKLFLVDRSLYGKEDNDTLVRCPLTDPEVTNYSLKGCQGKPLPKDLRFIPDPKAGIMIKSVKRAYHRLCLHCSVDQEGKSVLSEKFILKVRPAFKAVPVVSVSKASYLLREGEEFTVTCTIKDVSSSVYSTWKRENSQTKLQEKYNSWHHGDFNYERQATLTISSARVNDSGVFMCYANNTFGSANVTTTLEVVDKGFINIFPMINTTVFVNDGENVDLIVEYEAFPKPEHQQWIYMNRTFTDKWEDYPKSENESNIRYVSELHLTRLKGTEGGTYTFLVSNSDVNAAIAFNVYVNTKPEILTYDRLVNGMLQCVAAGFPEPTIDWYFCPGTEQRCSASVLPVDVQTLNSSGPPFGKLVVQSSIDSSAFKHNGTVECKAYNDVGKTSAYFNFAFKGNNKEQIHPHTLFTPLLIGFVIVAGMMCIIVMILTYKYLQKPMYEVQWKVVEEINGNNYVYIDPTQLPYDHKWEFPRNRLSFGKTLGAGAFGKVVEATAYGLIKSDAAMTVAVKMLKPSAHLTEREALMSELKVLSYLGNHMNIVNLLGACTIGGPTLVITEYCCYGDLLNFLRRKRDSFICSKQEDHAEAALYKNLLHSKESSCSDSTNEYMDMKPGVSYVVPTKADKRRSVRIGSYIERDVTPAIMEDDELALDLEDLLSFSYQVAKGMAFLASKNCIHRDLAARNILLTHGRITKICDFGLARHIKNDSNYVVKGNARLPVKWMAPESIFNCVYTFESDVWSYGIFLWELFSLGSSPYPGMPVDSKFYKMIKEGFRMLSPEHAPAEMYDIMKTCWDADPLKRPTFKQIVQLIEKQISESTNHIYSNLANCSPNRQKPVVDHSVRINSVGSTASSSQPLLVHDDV
T1 sequence (Q13557 whole entry): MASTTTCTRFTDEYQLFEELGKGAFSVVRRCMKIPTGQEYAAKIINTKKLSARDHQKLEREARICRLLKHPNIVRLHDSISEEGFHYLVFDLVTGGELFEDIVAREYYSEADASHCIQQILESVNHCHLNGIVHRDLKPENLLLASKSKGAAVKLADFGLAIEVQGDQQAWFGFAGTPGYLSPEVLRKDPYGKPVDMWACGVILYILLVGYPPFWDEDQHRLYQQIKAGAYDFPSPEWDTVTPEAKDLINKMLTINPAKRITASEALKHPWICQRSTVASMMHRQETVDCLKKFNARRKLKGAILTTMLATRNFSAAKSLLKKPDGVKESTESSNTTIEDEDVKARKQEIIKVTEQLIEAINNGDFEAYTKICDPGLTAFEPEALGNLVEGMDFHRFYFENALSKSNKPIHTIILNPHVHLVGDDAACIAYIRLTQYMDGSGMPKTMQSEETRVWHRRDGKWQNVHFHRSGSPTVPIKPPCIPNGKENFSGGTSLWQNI
T4 sequence (Q16816 whole entry): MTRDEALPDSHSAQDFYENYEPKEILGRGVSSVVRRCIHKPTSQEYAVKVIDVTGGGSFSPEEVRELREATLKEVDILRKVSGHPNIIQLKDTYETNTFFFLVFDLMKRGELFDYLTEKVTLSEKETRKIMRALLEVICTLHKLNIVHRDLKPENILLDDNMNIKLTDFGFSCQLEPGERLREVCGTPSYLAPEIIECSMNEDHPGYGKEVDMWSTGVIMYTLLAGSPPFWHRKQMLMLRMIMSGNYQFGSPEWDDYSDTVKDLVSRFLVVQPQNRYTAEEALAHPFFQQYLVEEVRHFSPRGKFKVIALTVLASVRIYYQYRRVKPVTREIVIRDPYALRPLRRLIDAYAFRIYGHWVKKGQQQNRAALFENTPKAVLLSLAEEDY
T6 sequence (Q9H2G2 whole entry, looked up): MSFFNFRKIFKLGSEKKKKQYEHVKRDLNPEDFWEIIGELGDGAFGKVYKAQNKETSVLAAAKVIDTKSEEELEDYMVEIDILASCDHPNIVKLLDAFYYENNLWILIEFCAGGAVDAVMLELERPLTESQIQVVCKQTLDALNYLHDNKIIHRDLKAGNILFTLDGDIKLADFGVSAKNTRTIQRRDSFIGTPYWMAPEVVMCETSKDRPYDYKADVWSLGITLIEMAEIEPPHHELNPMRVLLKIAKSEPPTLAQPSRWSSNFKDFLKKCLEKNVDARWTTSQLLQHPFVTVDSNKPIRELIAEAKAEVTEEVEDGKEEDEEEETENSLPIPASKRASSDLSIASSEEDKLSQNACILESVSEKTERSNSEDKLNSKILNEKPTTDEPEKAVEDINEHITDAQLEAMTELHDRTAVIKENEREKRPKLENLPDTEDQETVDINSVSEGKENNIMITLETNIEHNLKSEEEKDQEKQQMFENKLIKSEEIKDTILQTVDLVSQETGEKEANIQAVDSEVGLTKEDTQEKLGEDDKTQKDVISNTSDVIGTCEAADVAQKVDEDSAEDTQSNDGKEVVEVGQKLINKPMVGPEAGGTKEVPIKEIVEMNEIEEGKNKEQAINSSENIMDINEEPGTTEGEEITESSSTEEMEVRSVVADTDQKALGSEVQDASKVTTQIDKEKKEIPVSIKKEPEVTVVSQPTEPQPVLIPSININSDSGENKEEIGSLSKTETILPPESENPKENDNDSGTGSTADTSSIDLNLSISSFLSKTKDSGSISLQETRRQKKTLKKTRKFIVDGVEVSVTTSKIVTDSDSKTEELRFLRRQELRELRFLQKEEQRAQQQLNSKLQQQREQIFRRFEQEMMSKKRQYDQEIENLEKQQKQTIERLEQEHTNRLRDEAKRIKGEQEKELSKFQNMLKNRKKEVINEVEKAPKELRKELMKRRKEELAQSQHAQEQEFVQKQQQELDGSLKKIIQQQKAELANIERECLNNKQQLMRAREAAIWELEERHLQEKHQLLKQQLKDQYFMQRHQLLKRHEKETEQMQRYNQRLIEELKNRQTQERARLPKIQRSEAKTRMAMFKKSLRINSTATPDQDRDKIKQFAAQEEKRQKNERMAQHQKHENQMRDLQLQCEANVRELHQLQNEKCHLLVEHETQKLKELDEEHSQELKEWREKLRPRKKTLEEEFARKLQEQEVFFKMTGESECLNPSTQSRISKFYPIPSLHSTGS

In the case of `Clc1cc(NCC2CC2)c2ncc(-c3ccc4[nH]ncc4c3)n2n1` [compound 2, 6-Chloro-N-(cyclopropylmethyl)-3-(1H-indazol-5-yl)imidazo[1,2-b]pyridazin-8-amine], the remaining binding at 1 µM in experiment [1] was 97%; in experiment [2] it was 100%; in experiment [3], 100%; in experiment [4], 91%; in experiment [5], 78%; in experiment [6], 100%. Further, the remaining binding at 1 µM in experiment [7] came to 87%; in experiment [8] it was 100%.

On to `O=C(CN1CCOCC1)N[C@H]1CC[C@H](Nc2cc(Cl)nn3c(-c4ccc5[nH]ncc5c4)cnc23)CC1` [compound 26], for which the remaining binding at 1 µM is 62% in experiment [1]; 80% in experiment [2]; 63% in experiment [3]; 17% in experiment [4]; 87% in experiment [5]; 98% in experiment [6]. The remaining binding at 1 µM in experiment [7] and in experiment [8] was 100% each time.

For the compound `CN1CCC(CNc2cc(Cl)nn3c(-c4cc5nc(Nc6ccccc6)[nH]c5cc4F)cnc23)CC1` [compound 31, 6-Chloro-3-(6-fluoro-2-(phenylamino)-1H-benzo[d]imidazol-5-yl)-N-((1-methylpiperidin-4-yl)methyl)imidazo[1,2-b]pyridazin-8-amine], the remaining binding at 1 µM in experiment [1] was 100%; in experiment [2] it was 82%; in experiment [3], 96%; in experiment [4], 92%; in experiment [5] it was 81%; in experiment [6], 80%. For the same compound, the remaining binding at 1 µM was 98% in experiment [7] and 92% in experiment [8].

(Values after article PMC6437697 (Journal of Medicinal Chemistry, 2019).)
